The molecules below were run on MOLM-13 cells (assay: MOLM-13 cell viability assay (CellTiter-Glo)). Details: Homo sapiens, MOLM-13, 72 h, 3 days, concentration of 1 μM, read-out: Antiproliferative Activity (inhibition, MOLM-13 cell viability).
Format: cell-based
Procedure, shortened: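 MOLM-13 AML cells in RPMI 1640 with 10% FBS, seeded at 2,500 cells/well and exposed to compound or DMSO for 3 days at 37° C, 5% CO2. Viability read as CellTiter-Glo luminescence after 10 min shaking.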

Compound	cytotoxicity at 1 µM
Cc1ccc(NC(=O)NCc2cc3c(s2)C(=O)N(C2CCC(=O)N(COP(=O)(OC(C)(C)C)OC(C)(C)C)C2=O)C3)cc1N(C)C (stereo not shown) [II-105, di-tert-butyl ((3-(2-((3-(3-(dimethylamino)-4-methylphenyl)ureido)-methyl)-6-oxo-4,6-dihydro-5H-thieno[2,3-c]pyrrol-5-yl)-2,6-dioxopiperidin-1-yl)methyl) phosphate]	< 25%
CC(C)[C@@H](N)C(=O)OCN1C(=O)CCC(N2Cc3c(CNC(=O)C(=O)c4ccc(C5(C(F)(F)F)CC5)cc4)cccc3C2=O)C1=O (stereo partly drawn) [Compound I-64, (2,6-dioxo-3-(1-oxo-4-((2-oxo-2-(4-(1-(trifluoromethyl)cyclopropyl)-phenyl)acetamido)methyl)isoindolin-2-yl)piperidin-1-yl)methyl D-valinate]	> 80%
CC(C)(C)c1ccc(C(=O)C(=O)NCc2c(F)c(F)cc3c2CN(C2CCC(=O)NC2=O)C3=O)cc1 (stereo not shown) [Compound I-51, 2-(4-(tert-butyl)phenyl)-N-((2-(2,6-dioxopiperidin-3-yl)-5,6-difluoro-1-oxoisoindolin-4-yl)methyl)-2-oxoacetamide]	< 25%
O=C(Cc1ccc(N2CCOCC2)cc1)NCc1scc2c1CN(C1CCC(=O)NC1=O)C2=O (stereo not shown) [II-83, N-((5-(2,6-dioxopiperidin-3-yl)-4-oxo-5,6-dihydro-4H-thieno[3,4-c]pyrrol-1-yl)methyl)-2-(4-morpholinophenyl)acetamide]	< 25%
NC(C(=O)NCc1scc2c1CN(C1CCC(=O)NC1=O)C2=O)c1ccc(O)cc1 (stereo not shown) [II-113, 2-amino-N-((5-(2,6-dioxopiperidin-3-yl)-4-oxo-5,6-dihydro-4H-thieno[3,4-c]pyrrol-1-yl)methyl)-2-(4-hydroxyphenyl)acetamide]	< 25%
Cc1ccc(NC(=O)NCc2cc3c(s2)C(=O)N(C2CCC(=O)NC2=O)C3)cc1CN(C)C (stereo not shown) [II-51, 1-(3-((dimethylamino)methyl)-4-methylphenyl)-3-((5-(2,6-dioxopiperidin-3-yl)-6-oxo-5,6-dihydro-4H-thieno[2,3-c]pyrrol-2-yl)methyl)urea]	< 25%
CC(C)(C)c1ccc(C(=O)C(=O)NCc2c(F)ccc3c2CN(C2CCC(=O)NC2=O)C3=O)cc1 (stereo not shown) [Compound I-50, 2-(4-(tert-butyl)phenyl)-N-((2-(2,6-dioxopiperidin-3-yl)-5-fluoro-1-oxoisoindolin-4-yl)methyl)-2-oxoacetamide]	< 25%
O=C(CN1CCOCC1)NCc1scc2c1CN(C1CCC(=O)NC1=O)C2=O (stereo not shown) [II-78, N-((5-(2,6-dioxopiperidin-3-yl)-4-oxo-5,6-dihydro-4H-thieno[3,4-c]pyrrol-1-yl)methyl)-2-morpholinoacetamide]	< 25%
Cc1ccc(C(=O)C(=O)NCc2scc3c2CN(C2CCC(=O)NC2=O)C3=O)cc1Cl (stereo not shown) [Compound I-6, 2-(3-chloro-4-methylphenyl)-N-((5-(2,6-dioxopiperidin-3-yl)-4-oxo-5,6-dihydro-4H-thieno[3,4-c]pyrrol-1-yl)methyl)-2-oxoacetamide]	25 to 50%
CC1(c2ccc(C(=O)C(=O)NCc3scc4c3CN(C3CCC(=O)NC3=O)C4=O)cc2)CC1 (stereo not shown) [Compound I-42, N-((5-(2,6-dioxopiperidin-3-yl)-4-oxo-5,6-dihydro-4H-thieno[3,4-c]pyrrol-1-yl)methyl)-2-(4-(1-methylcyclopropyl)phenyl)-2-oxoacetamide]	50 to 80%
COc1cc(OC)c(C(=O)C(=O)NCc2ccc3c(c2)CN(C2CCC(=O)NC2=O)C3=O)c(OC)c1 (stereo not shown) [Compound I-84, N-((2-(2,6-dioxopiperidin-3-yl)-1-oxoisoindolin-5-yl)methyl)-2-oxo-2-(2,4,6-trimethoxyphenyl)acetamide]	25 to 50%
COc1ccc(C(=O)C(=O)NCc2cccc3c2CN(C2CCC(=O)NC2=O)C3=O)cc1 (stereo not shown) [Compound I-78, 2-(4-methoxyphenyl)-N-((2-(2,6-dioxopiperidin-3-yl)-1-oxoisoindolin-4-yl)methyl)-2-oxoacetamide]	25 to 50%
Cc1cc(C(C)(C)C)cc(C)c1C(=O)C(=O)NCc1cccc2c1CN(C1CCC(=O)NC1=O)C2=O (stereo not shown) [Compound I-105, 2-(4-(tert-butyl)-2,6-dimethylphenyl)-N-((2-(2,6-dioxopiperidin-3-yl)-1-oxoisoindolin-4-yl)methyl)-2-oxoacetamide]	< 25%
CC(C)c1ccc(C(=O)C(=O)NCc2scc3c2CN(C2CCC(=O)NC2=O)C3=O)cc1 (stereo not shown) [Compound I-14, 2-(4-isopropylphenyl)-N-((5-(2,6-dioxopiperidin-3-yl)-4-oxo-5,6-dihydro-4H-thieno[3,4-c]pyrrol-1-yl)methyl)-2-oxoacetamide]	25 to 50%
CC(C)c1ccc(C(=O)C(=O)NCc2cccc3c2CN(C2CCC(=O)NC2=O)C3=O)s1 (stereo not shown) [Compound I-59, N-((2-(2,6-dioxopiperidin-3-yl)-1-oxoisoindolin-4-yl)methyl)-2-(5-isopropylthiophen-2-yl)-2-oxoacetamide]	25 to 50%
Cc1c(CNC(=O)C(=O)c2ccc(C3(C(F)(F)F)CC3)cc2)ccc2c1CN(C1CCC(=O)NC1=O)C2=O (stereo not shown) [Compound I-60, N-((2-(2,6-dioxopiperidin-3-yl)-4-methyl-1-oxoisoindolin-5-yl)methyl)-2-oxo-2-(4-(1-(trifluoromethyl)cyclopropyl)phenyl)acetamide]	50 to 80%
CC(C)(C)c1ccc(C(O)C(=O)NCc2scc3c2CN(C2CCC(=O)NC2=O)C3=O)cc1 (stereo not shown) [II-132, 2-(4-(tert-butyl)phenyl)-N-((5-(2,6-dioxopiperidin-3-yl)-4-oxo-5,6-dihydro-4H-thieno[3,4-c]pyrrol-1-yl)methyl)-2-hydroxyacetamide]	25 to 50%
Cc1cc(C(C)(C)C)cc(C)c1C(=O)C(=O)NCc1ccc2c(c1)CN(C1CCC(=O)NC1=O)C2=O (stereo not shown) [Compound I-104, 2-(4-(tert-butyl)-2,6-dimethylphenyl)-N-((2-(2,6-dioxopiperidin-3-yl)-1-oxoisoindolin-5-yl)methyl)-2-oxoacetamide]	> 80%
CC(C)(C)c1ccc(C(=O)C(=O)NCc2ccc3c(c2)C(=O)N(C2CCC(=O)NC2=O)C3=O)cc1 (stereo not shown) [Compound I-32, 2-(4-(tert-butyl)phenyl)-N-((2-(2,6-dioxopiperidin-3-yl)-1,3-dioxoisoindolin-5-yl)methyl)-2-oxoacetamide]	> 80%
CC(C)N(C)c1cccc(NC(=O)NCc2cc3c(s2)C(=O)N(C2CCC(=O)NC2=O)C3)c1 (stereo not shown) [II-56, 1-((5-(2,6-dioxopiperidin-3-yl)-6-oxo-5,6-dihydro-4H-thieno[2,3-c]pyrrol-2-yl)methyl)-3-(3-(isopropyl(methyl)amino)phenyl)urea]	> 80%
CC(C)(C)c1ccc(C(=O)C(=O)NCc2cccc3c2CN(C2CCC(=O)NC2=O)C3=O)cc1 (stereo not shown) [Compound I-28, 2-(4-(tert-butyl)phenyl)-N-((2-(2,6-dioxopiperidin-3-yl)-1-oxoisoindolin-4-yl)methyl)-2-oxoacetamide]	> 80%
CN(Cc1cccc2c1CN(C1CCC(=O)NC1=O)C2=O)C(=O)C(=O)c1ccc(C(C)(C)C)cc1 (stereo not shown) [Compound I-47, 2-(4-(tert-butyl)phenyl)-N-((2-(2,6-dioxopiperidin-3-yl)-1-oxoisoindolin-4-yl)methyl)-N-methyl-2-oxoacetamide]	< 25%

Reference: patent US11345712B2, “Protein-targeting compounds and pharmaceutical compositions thereof, and their therapeutic applications” (BioTheryX, Inc., priority 2019, dated 2022)
